Entries after “also recorded” stand apart in the source; their conditions may differ. Like-named read-outs stand apart in the source and are kept apart here.
Columns and labels:
[1] = Pharmacokinetics after oral and IV administration; format: in vivo; details: IV Dose 1 mg/kg, PO Dose 3 mg/kg; for AUC(0-t) / Cmax / Tmax / clearance / half-life / Vd: plasma; for Vd: read-out: VSS
Description: (§1) Pharmacokinetics of IIIa were evaluated after both oral and IV administration in mice, rats, dogs, and monkeys.

[2] = Liver microsome incubation, statement for all species; format: in vitro ADME; details: predicted clearance well below hepatic blood flow
Description: (§2) The compound of Formula IIIa (below) was incubated for 60 minutes at 37 C with mouse, rat, dog, monkey, and human liver microsomes.
(§3) Concentrations of IIIa were measured at multiple time points by LC-MS/MS. IIIa was stable with predicted clearance well below hepatic blood flow in all species.

[3] = Liver microsome incubation; format: in vitro ADME, rat
Description: as §2, §3

[4] = Liver microsome incubation; format: in vitro ADME, dog
Description: as §2, §3

[5] = Single ascending dose study, safety and tolerability; format: in vivo, human; details: for Any study drug related TEAE / Gastrointestinal disorders Diarrhoea / Gastrointestinal disorders Nausea / Gastrointestinal disorders Vomiting / Nervous systems disorders Headache: Normal Healthy Volunteers, 6 subjects; for tolerability: single oral doses 2 to 480 mg in NHV, 40 mg in T2DM subjects
Description: (§4) Oral doses of IIIa were administered to normal healthy volunteers (NHV) and subjects with type 2 diabetes mellitus (T2DM). A single center, randomized, double-blind, placebo-controlled single ascending dose study was done in both NHV (n=48) and T2DM subjects (n=8). Dose escalation only occurred after review of safety and tolerability data from previous dose levels (n=8/cohort; 2-placebo & 6-IIIa). Dosing of the T2DM cohort was initiated only after the equivalent dose had been administered to NHV and safety data had been reviewed. All subjects were administered IIIa in the morning after an overnight fast with the exception of the NHV in the 40 mg cohort. NHV subjects in the 40 mg cohort initially received IIIa in a fasted state. Following a 3 week washout period, IIIa was readministered after breakfast at 40 mg to determine the effects of food consumption on pharmacokinetics.
(§5) This was a single center, randomized, double-blind, placebo-controlled single ascending dose study in both normal healthy volunteers (NHV) (n=48) and subjects with type 2 diabetes mellitus (T2DM) (n=8). All subjects were administered Formula IIIa as a solution formulated with Captisol® after an overnight fast with the exception of the NHV in the 40 mg cohort. The NHV 40 mg cohort initially received Formula IIIa in a fasted state. Following a washout period, subjects received 40 mg Formula IIIa after breakfast to explore the effects of food consumption on pharmacokinetics.
In type 2 diabetes mellitus (T2DM), inappropriately elevated levels of glucagon exacerbate hyperglycemia and its associated complications. Not wishing to be bound to a particular theory, it has been observed that antagonism of glucagon action reduces blood glucose levels and hemoglobin A1c in patients with T2DM. The novel, selective, orally bioavailable glucagon receptor antagonist, Formula IIIa (below), was investigated regarding its pharmacokinetics (PK), safety, and pharmacodynamics (PD) in a first-in-human, ascending, single-dose, double blind, placebo-controlled study in normal healthy (NH) and T2DM subjects (NCT01919684).

[6] = Liver microsome incubation; format: in vitro ADME, human
Description: as §2, §3

[7] = Single ascending dose study, pharmacokinetics; format: in vivo, human; details: for AUC(0-inf) / Cmax / Tmax / half-life: human, plasma, po; for time to peak plasma concentrations: post dose
Description: as §4, §5
Plasma levels of Formula IIIa were measured by validated LC-MS/MS method. Formula IIIa was well absorbed after oral administration with peak plasma concentrations reached approximately 5-8 hours post dose. Consistent with preclinical predictions, clearance was slow and Formula IIIa was not detected in the urine.

[8] = Liver microsome incubation; format: in vitro ADME, monkey
Description: as §2, §3

[9] = Excretion experiments in rats; format: in vivo, rat
Description: as §1

[10] = NHV and T2DM subjects, single dose
[11] = human subjects, oral administration
[12] = 40 mg, Diabetic, 40 mg oral, Fasted
[13] = 40 mg, Normal healthy volunteer, 40 mg oral, Fasted
[14] = 40 mg, Normal healthy volunteer, 40 mg oral, Fed

Q: What does the source list for `Cc1cc(C)c(-c2ccc(NC(=O)[C@H](Cc3ccc(C(=O)NCCS(=O)(=O)O)cc3)c3ccc(-c4ccc(C(C)(C)C)cc4)cc3)cc2)c(C)c1` [IIIa]?
A: F ([1]; Dog): 54%; F ([1]; Monkey): 21%; F ([1]; Mouse): 47%; F ([1]; Rat): 36%; AUC(0-t) ([1]; Dog): 225000 ng·h/mL; Cmax ([1]; Dog): 10900 ng/mL; Tmax ([1]; Dog): 4 h; clearance ([1]; Dog): 0.07 mL/min/kg; half-life ([1]; Dog): 46 h; Vd ([1]; Dog): 0.24 L/kg; AUC(0-t) ([1]; Monkey): 9850 ng·h/mL; Cmax ([1]; Monkey): 1250 ng/mL; Tmax ([1]; Monkey): 4 h; clearance ([1]; Monkey): 1.13 mL/min/kg; half-life ([1]; Monkey): 16.2 h; Vd ([1]; Monkey): 0.16 L/kg; AUC(0-t) ([1]; Mouse): 16300 ng·h/mL; Cmax ([1]; Mouse): 1710 ng/mL; Tmax ([1]; Mouse): 6 h; clearance ([1]; Mouse): 22.2 mL/min/kg; half-life ([1]; Mouse): 5.9 h; Vd ([1]; Mouse): 0.62 L/kg; AUC(0-t) ([1]; Rat): 7600 ng·h/mL; Cmax ([1]; Rat): 1330 ng/mL; Tmax ([1]; Rat): 2 h; clearance ([1]; Rat): 2.33 mL/min/kg; half-life ([1]; Rat): 10.9 h; Vd ([1]; Rat): 0.3 L/kg; stability in liver microsomes [2]: stable; 1st-order kinetic rate constant ([3]; Rat liver microsomes, 60 minutes at 37 C): 0.0058 min⁻¹; Predicted systemic clearance ([3]; Rat, from liver microsomes): 13.8 mL/min/kg body weight; 1st-order kinetic rate constant ([4]; Dog liver microsomes, 60 minutes at 37 C): 0.0016 min⁻¹; Predicted systemic clearance ([4]; Dog, from liver microsomes): 4.01 mL/min/kg body weight; cases of hypoglycemia (glucose <60 mg/dL) [5, 10]: no cases of hypoglycemia; serious adverse events [5, 10]: no serious adverse events; Any study drug related TEAE ([5]; 2 mg): 0 (0.0); Gastrointestinal disorders Diarrhoea ([5]; 2 mg): 0 (0.0); Gastrointestinal disorders Nausea ([5]; 2 mg): 0 (0.0); Gastrointestinal disorders Vomiting ([5]; 2 mg): 0 (0.0); Nervous systems disorders Headache ([5]; 2 mg): 0 (0.0); Any study drug related TEAE ([5]; 10 mg): 1 (16.7); Gastrointestinal disorders Diarrhoea ([5]; 10 mg): 0 (0.0); Gastrointestinal disorders Nausea ([5]; 10 mg): 0 (0.0); Gastrointestinal disorders Vomiting ([5]; 10 mg): 0 (0.0); Nervous systems disorders Headache ([5]; 10 mg): 1 (16.7); Any study drug related TEAE ([5]; 40 mg): 0 (0.0); Gastrointestinal disorders Diarrhoea ([5]; 40 mg): 0 (0.0); Gastrointestinal disorders Nausea ([5]; 40 mg): 0 (0.0); Gastrointestinal disorders Vomiting ([5]; 40 mg): 0 (0.0); Nervous systems disorders Headache ([5]; 40 mg): 0 (0.0); Any study drug related TEAE ([5]; 120 mg): 2 (33.3); Gastrointestinal disorders Diarrhoea ([5]; 120 mg): 0 (0.0); Gastrointestinal disorders Nausea ([5]; 120 mg): 0 (0.0); Gastrointestinal disorders Vomiting ([5]; 120 mg): 0 (0.0); Nervous systems disorders Headache ([5]; 120 mg): 2 (33.3); Any study drug related TEAE ([5]; 240 mg): 2 (33.3); Gastrointestinal disorders Diarrhoea ([5]; 240 mg): 0 (0.0); Gastrointestinal disorders Nausea ([5]; 240 mg): 1 (16.7); Gastrointestinal disorders Vomiting ([5]; 240 mg): 0 (0.0); Nervous systems disorders Headache ([5]; 240 mg): 1 (16.7); Any study drug related TEAE ([5]; 480 mg): 2 (33.3); Gastrointestinal disorders Diarrhoea ([5]; 480 mg): 1 (16.7); Gastrointestinal disorders Nausea ([5]; 480 mg): 1 (16.7); Gastrointestinal disorders Vomiting ([5]; 480 mg): 1 (16.7); Nervous systems disorders Headache ([5]; 480 mg): 0 (0.0); study drug related treatment emergent adverse events (TEAE), NHV vs T2DM subjects ([5]; single dose): observed in the NHV but not the T2DM subjects; tolerability [5]: well tolerated; tolerability ([5]; listed as Formula IIIa): well tolerated and considered safe up to the highest dose tested; 1st-order kinetic rate constant ([6]; Human liver microsomes, 60 minutes at 37 C): 0.0021 min⁻¹; Predicted systemic clearance ([6]; Human, from liver microsomes): 3.18 mL/min/kg body weight; pharmacokinetics in healthy volunteers vs diabetic subjects ([7]; 40 mg): comparable; effect of food on pharmacokinetics ([7]; 40 mg, healthy volunteers, fasted vs after breakfast): comparable; plasma exposure versus dose ([7]; 2 to 480 mg oral, human subjects): Dose dependent increases; CL/F ([7]; Diabetic, 40 mg oral, Fasted): 1.32 L/h; CL/F ([7]; Normal healthy volunteer, 40 mg oral, Fasted): 1.33 L/h; CL/F ([7]; Normal healthy volunteer, 40 mg oral, Fed): 1.67 L/h; absorption after oral administration ([7]; human subjects): well absorbed; clearance [7, 11]: slow; detection in the urine [7, 11]: not detected; absorption after oral administration ([7]; human subjects, listed as Formula IIIa): well absorbed; also recorded: well-absorbed; AUC(0-inf) [7, 12]: 33700 ng·h/mL; Cmax [7, 12]: 1420 ng/mL; Tmax [7, 12]: 7.5 h; half-life ([7]; 40 mg, Diabetic, 40 mg oral, Fasted, read-out: t1/2 (converted)): 58.5 h; AUC(0-inf) [7, 13]: 32700 ng·h/mL; Cmax [7, 13]: 893 ng/mL; Tmax [7, 13]: 8.4 h; half-life ([7]; 40 mg, Normal healthy volunteer, 40 mg oral, Fasted, read-out: t1/2 (converted)): 51.6 h; AUC(0-inf) [7, 14]: 25200 ng·h/mL; Cmax [7, 14]: 779 ng/mL; Tmax [7, 14]: 7.2 h; half-life ([7]; 40 mg, Normal healthy volunteer, 40 mg oral, Fed, read-out: t1/2 (converted)): 53.8 h; half-life ([7]; oral administration, NH and T2DM subjects, read-out: elimination half-life (converted)): ~50 h; time to peak plasma concentrations ([7]; oral administration, human subjects): 5 to 8 h; time to peak plasma concentrations ([7]; oral administration, human subjects, listed as Formula IIIa): 5 to 8 h; 1st-order kinetic rate constant ([8]; Monkey liver microsomes, 60 minutes at 37 C): 0.0057 min⁻¹; Predicted systemic clearance ([8]; Monkey, from liver microsomes): 11.9 mL/min/kg body weight; levels detected in the urine [9]: negligible; route of excretion [9]: primarily excreted in the bile

From patent publication US10076504B2, “Glucagon antagonists” (Ligand Pharmaceuticals, Inc., priority 2014, dated 2018)
